Data from patent publication US12692262B2, “Substituted ureas as orexin receptor agonists” (Merck Sharp & Dohme LLC, priority 2020, dated 2026).

Biological target: T1, human OX2R (Homo sapiens, UniProt O43614)
T1 construct: expressed in transfected cells; host or cells: CHO (Chinese hamster ovary) cells grown under G418 selection
T1 sequence (O43614 1-444): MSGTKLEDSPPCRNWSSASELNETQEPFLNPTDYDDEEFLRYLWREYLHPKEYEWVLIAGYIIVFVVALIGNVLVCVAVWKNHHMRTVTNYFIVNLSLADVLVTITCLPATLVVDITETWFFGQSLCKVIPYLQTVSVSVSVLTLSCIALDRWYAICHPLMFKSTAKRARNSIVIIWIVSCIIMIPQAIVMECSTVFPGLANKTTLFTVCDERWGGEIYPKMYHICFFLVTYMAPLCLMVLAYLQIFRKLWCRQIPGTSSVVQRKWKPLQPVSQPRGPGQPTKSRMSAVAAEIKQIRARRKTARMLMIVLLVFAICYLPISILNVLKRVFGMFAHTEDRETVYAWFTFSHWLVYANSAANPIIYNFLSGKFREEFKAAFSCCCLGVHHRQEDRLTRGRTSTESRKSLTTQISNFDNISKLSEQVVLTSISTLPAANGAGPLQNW
Assay: IPOne (IP-1 accumulation) assay in CHO cells expressing human OX2R
Format: cell-based
Details: for EC50: CHO cells expressing human OX2R, IP-One assay, 2 h incubation, four parameter logistic fit, read-out: OX2R Potency, EC50; for % of maximum agonist effect (relative to Orexin A): percent effect vs mean max effect of a reference compound at 1 uM (100% activity vs Orexin A), human OX2R
Outline: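 CHO cells stably expressing human OX2R, grown in Iscove's modified DMEM with 10% FBS; agonist-driven IP-1 accumulation via the Gαq pathway measured by HTRF (D2/AB-cryptate detection after lysis). EC50 taken as the inflection point of a four-parameter logistic fit.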

| Structure (SMILES) | EC50 [nM] | % of maximum agonist effect (relative to Orexin A) [%] |
| --- | --- | --- |
| CCN(C(=O)N[C@@H](CCC(F)(F)F)C(F)(F)F)[C@H](C)c1cccc(-c2ccc3ncc(N)n3c2)c1 [Example 8-12, 1-((R)-1-(3-(3-aminoimidazo[1,2-a]pyridin-6-yl)phenyl)ethyl)-1-ethyl-3-((S)-1,1,1,5,5,5-hexafluoropentan-2-yl)urea] | 17.4 | 96.7 |
| CCN(C(=O)N[C@@H](CCC(F)(F)F)C(F)(F)F)[C@H](C)c1cccc(-c2cc(OC)c3ncc(Cl)n3c2Cl)c1 [Example 8-14, 1-((R)-1-(3-(3,5-dichloro-8-methoxyimidazo[1,2-a]pyridin-6-yl)phenyl)ethyl)-1-ethyl-3-((S)-1,1,1,5,5,5-hexafluoropentan-2-yl)urea] | 109 | 100.1 |
| CC[C@H](CCC(F)(F)F)NC(=O)N(CC)[C@H](C)c1cccc(-c2cn3ccnc3cc2Cl)c1 [Example 8-15, 1-((R)-1-(3-(7-chloroimidazo[1,2-a]pyridin-6-yl)phenyl)ethyl)-1-ethyl-3-((R)-6,6,6-trifluorohexan-3-yl)urea] | 188 | 94.1 |
| CCN(C(=O)N[C@@H](CCC(F)(F)F)C(F)(F)F)[C@@H](c1cc(-c2cc(OC)c3nccn3c2)c(OC)cn1)C(F)(F)F [Example 9-1, 1-ethyl-3-((S)-1,1,1,5,5,5-hexafluoropentan-2-yl)-1-((S)-2,2,2-trifluoro-1-(5-methoxy-4-(8-methoxyimidazo[1,2-a]pyridin-6-yl)pyridin-2-yl)ethyl)urea] | 0.9 | 99.7 |
| CCc1nc(-c2cc([C@H](N(CC)C(=O)N[C@@H](CCC(F)(F)F)C(F)(F)F)C(F)(F)F)ncc2OC)cn2ccnc12 [Example 9-2, 1-ethyl-1-((S)-1-(4-(8-ethylimidazo[1,2-a]pyrazin-6-yl)-5-methoxypyridin-2-yl)-2,2,2-trifluoroethyl)-3-((S)-1,1,1,5,5,5-hexafluoropentan-2-yl)urea] | 5.5 | 100.5 |
| CCN(C(=O)N[C@@H](CCC(F)(F)F)C(F)(F)F)[C@@H](c1cc(-c2nc(OC)c3nccn3c2C)c(OC)cn1)C(F)(F)F [Example 9-3, 1-ethyl-3-((S)-1,1,1,5,5,5-hexafluoropentan-2-yl)-1-((S)-2,2,2-trifluoro-1-(5-methoxy-4-(8-methoxy-5-methylimidazo[1,2-a]pyrazin-6-yl)pyridin-2-yl)ethyl)urea] | 6.2 | 100.7 |
| CCN(C(=O)N[C@@H](CCC(F)(F)F)C(F)(F)F)[C@H](C)c1cc(-c2cc(OC)c3ncoc3c2)c(OC)cn1 [Example 9-4, 1-ethyl-3-((S)-1,1,1,5,5,5-hexafluoropentan-2-yl)-1-((R)-1-(5-methoxy-4-(4-methoxybenzo[d]oxazol-6-yl)pyridin-2-yl)ethyl)urea] | 7.5 | 99.6 |
| CCc1cc(-c2cc([C@@H](C)N(CC)C(=O)N[C@@H](CCC(F)(F)F)C(F)(F)F)ncc2OC)cc2ccnn12 [Example 9-5, 1-ethyl-1-((R)-1-(4-(7-ethylpyrazolo[1,5-a]pyridin-5-yl)-5-methoxypyridin-2-yl)ethyl)-3-((S)-1,1,1,5,5,5-hexafluoropentan-2-yl)urea] | 16.3 | 99.6 |
| CCN(C(=O)N[C@@H](CCC(F)(F)F)C(F)(F)F)[C@@H](c1cc(-c2cc(OC)c3ncn(C)c3c2)c(OC)cn1)C(F)(F)F [Example 9-7, 1-ethyl-3-((S)-1,1,1,5,5,5-hexafluoropentan-2-yl)-1-((S)-2,2,2-trifluoro-1-(5-methoxy-4-(4-methoxy-1-methyl-1H-benzo[d]imidazol-6-yl)pyridin-2-yl)ethyl)urea] | 29.8 | 100.4 |
| CCN(C(=O)N[C@@H](CCC(F)(F)F)C(F)(F)F)[C@@H](c1cc(-c2cc(OC)n3nccc3n2)c(OC)cn1)C(F)(F)F [Example 9-8, 1-ethyl-3-((S)-1,1,1,5,5,5-hexafluoropentan-2-yl)-1-((S)-2,2,2-trifluoro-1-(5-methoxy-4-(7-methoxypyrazolo[1,5-a]pyrimidin-5-yl)pyridin-2-yl)ethyl)urea] | 44 | 99.5 |
| CCN(C(=O)N[C@@H](CCC(F)(F)F)C(F)(F)F)[C@@H](c1cc(-c2cc(F)c3ncnn3c2)c(OC)cn1)C(F)(F)F [Example 9-10, 1-ethyl-3-((S)-1,1,1,5,5,5-hexafluoropentan-2-yl)-1-((S)-2,2,2-trifluoro-1-(4-(8-fluoro-[1,2,4]triazolo[1,5-a]pyridin-6-yl)-5-methoxypyridin-2-yl)ethyl)urea] | 608 | 97.1 |
| CCN(C(=O)N[C@@H](CCC(F)(F)F)C(F)(F)F)[C@@H](c1cc(-c2nc(OC)c3nccn3n2)c(OC)cn1)C(F)(F)F [Example 9-11, 1-ethyl-3-((S)-1,1,1,5,5,5-hexafluoropentan-2-yl)-1-((S)-2,2,2-trifluoro-1-(5-methoxy-4-(4-methoxyimidazo[2,1-f][1,2,4]triazin-2-yl)pyridin-2-yl)ethyl)urea] | 2.6 | 99.5 |
| CCN(C(=O)N[C@@H](CCC(F)(F)F)C(F)(F)F)[C@H](C)c1cc(-c2cn3ccnc3c(OC)n2)c(OC)nn1 [Example 10-3, 1-ethyl-3-((S)-1,1,1,5,5,5-hexafluoropentan-2-yl)-1-((R)-1-(6-methoxy-5-(8-methoxyimidazo[1,2-a]pyrazin-6-yl)pyridazin-3-yl)ethyl)urea] | 0.8 | 101.7 |
| CCN(C(=O)N[C@@H](CCC(F)(F)F)C(F)(F)F)C(c1cc(-c2cn3ccnc3c(OC)n2)c(OC)c(C)n1)C(F)(F)F (stereo partly drawn) [Example 10-6, 1-ethyl-3-((S)-1,1,1,5,5,5-hexafluoropentan-2-yl)-1-(2,2,2-trifluoro-1-(5-methoxy-4-(8-methoxyimidazo[1,2-a]pyrazin-6-yl)-6-methylpyridin-2-yl)ethyl)urea] | 9.2 | 98.9 |
| CCN(C(=O)N[C@@H](CCC(F)(F)F)C(F)(F)F)C(c1cc(-c2cc(OC)c3nc(C#N)cn3c2)c(OC)cn1)C(F)(F)F (stereo partly drawn) [Example 10-7, 1-(1-(4-(2-cyano-8-methoxyimidazo[1,2-a]pyridin-6-yl)-5-methoxypyridin-2-yl)-2,2,2-trifluoroethyl)-1-ethyl-3-((S)-1,1,1,5,5,5-hexafluoropentan-2-yl)urea] | 1.5 | 102.7 |
| CCN(C(=O)N[C@@H](CCC(F)(F)F)C(F)(F)F)[C@@H](c1cc(-c2cc3scnc3c(OC)n2)c(OC)cn1)C(F)(F)F [Example 10-8, 1-ethyl-3-((S)-1,1,1,5,5,5-hexafluoropentan-2-yl)-1-((S)-2,2,2-trifluoro-1-(5-methoxy-4-(4-methoxythiazolo[4,5-c]pyridin-6-yl)pyridin-2-yl)ethyl)urea] | 2.3 | 100.7 |
| CCN(C(=O)N[C@@H](CCC(F)(F)F)C(F)(F)F)[C@@H](c1cc(-c2cn3cc(C)nc3c(OC)n2)c(OC)cn1)C(F)(F)F [Example 10-9, 1-ethyl-3-((S)-1,1,1,5,5,5-hexafluoropentan-2-yl)-1-((S)-2,2,2-trifluoro-1-(5-methoxy-4-(8-methoxy-2-methylimidazo[1,2-a]pyrazin-6-yl)pyridin-2-yl)ethyl)urea] | 2.7 | 102.5 |

Now from value to compound:

| EC50 [nM] | % of maximum agonist effect (relative to Orexin A) [%] | Structure (SMILES) |
| --- | --- | --- |
| 1.1 | 100.4 | CCN(C(=O)N[C@@H](CCC(F)(F)F)C(F)(F)F)[C@@H](c1cc(-c2cn3ccnc3c(OC)n2)c(OC)cn1)C(F)(F)F [Example 10-1, 1-ethyl-3-((S)-1,1,1,5,5,5-hexafluoropentan-2-yl)-1-((S)-2,2,2-trifluoro-1-(5-methoxy-4-(8-methoxyimidazo[1,2-a]pyrazin-6-yl)pyridin-2-yl)ethyl)urea] |
| 1.3 | 100.7 | CCN(C(=O)N[C@@H](CCC(F)(F)F)C(F)(F)F)C(c1ncc(OC)c(-c2cn3ccnc3c(OC)n2)n1)C(F)(F)F (stereo partly drawn) [Example 10-4, 1-ethyl-3-((S)-1,1,1,5,5,5-hexafluoropentan-2-yl)-1-(2,2,2-trifluoro-1-(5-methoxy-4-(8-methoxyimidazo[1,2-a]pyrazin-6-yl)pyrimidin-2-yl)ethyl)urea] |
| 2.5 | 101.6 | CCN(C(=O)N[C@@H](CCC(F)(F)F)C(F)(F)F)C(c1cnc(OC)c(-c2cn3ccnc3c(OC)n2)n1)C(F)(F)F (stereo partly drawn) [Example 10-5, 1-ethyl-3-((S)-1,1,1,5,5,5-hexafluoropentan-2-yl)-1-(2,2,2-trifluoro-1-(5-methoxy-6-(8-methoxyimidazo[1,2-a]pyrazin-6-yl)pyrazin-2-yl)ethyl)urea] |
| 4.7 | 100.8 | CCN(C(=O)N[C@@H](CCC(F)(F)F)C(F)(F)F)C(c1cc(-c2cc(OC)c3nccn3n2)c(OC)cn1)C(F)(F)F (stereo partly drawn) [Example 10-10, 1-ethyl-3-((S)-1,1,1,5,5,5-hexafluoropentan-2-yl)-1-(2,2,2-trifluoro-1-(5-methoxy-4-(8-methoxyimidazo[1,2-b]pyridazin-6-yl)pyridin-2-yl)ethyl)urea] |
